Test results: ChEMBL document CHEMBL5724914, “Linking interpersonal differences in gut microbiota composition and drug biotransformation activity” (2024)

Key:
[1] = human gut metagenome, 24 h, 2 µM
[2] = human gut metagenome, 24 h, 2 µM; remark: listed apart in the source
[3] = human gut metagenome, 24 h, 2 µM; remark: listed apart in the source
[4] = human gut metagenome, 24 h, 2 µM; remark: listed apart in the source
[5] = human gut metagenome, 24 h, 2 µM; remark: listed apart in the source
[6] = The drug is tested on WLS-310 corresponding to human gut metagenome with ENA study accession number: PRJEB37062 and ENA sample accession number: ERS12561785 for biotransformation under anaerobic condition. The drug concentrations were measured over 9 timepoints collected between 0 and 24 hours of incubation by liquid-chromatography-coupled mass spectrometry (LC–MS); conditions: 2 µM
[7] = human gut metagenome, 24 h, 2 µM; remark: listed apart in the source
[8] = The drug is tested on Z-003 corresponding to pig gut metagenome with ENA study accession number: PRJEB37062 and ENA sample accession number: ERS12561803 for biotransformation under anaerobic condition. The drug concentrations were measured over 9 timepoints collected between 0 and 24 hours of incubation by liquid-chromatography-coupled mass spectrometry (LC–MS); conditions: 2 µM
[9] = human gut metagenome, 24 h, 2 µM; remark: listed apart in the source
[10] = human gut metagenome, 24 h, 2 µM; remark: listed apart in the source
[11] = The drug is tested on Z-012 corresponding to metagenome with ENA study accession number: PRJEB37062 and ENA sample accession number: ERS12561812 for biotransformation under anaerobic condition. The drug concentrations were measured over 9 timepoints collected between 0 and 24 hours of incubation by liquid-chromatography-coupled mass spectrometry (LC–MS); conditions: 2 µM
[12] = human gut metagenome, 24 h, 2 µM; remark: listed apart in the source
[13] = The drug is tested on WLS-240 corresponding to human gut metagenome with ENA study accession number: PRJEB37062 and ENA sample accession number: ERS12561773 for biotransformation under anaerobic condition. The drug concentrations were measured over 9 timepoints collected between 0 and 24 hours of incubation by liquid-chromatography-coupled mass spectrometry (LC–MS); conditions: 2 µM
[14] = The drug is tested on Z-017 corresponding to mouse gut metagenome with ENA study accession number: PRJEB37062 and ENA sample accession number: ERS12561816 for biotransformation under anaerobic condition. The drug concentrations were measured over 9 timepoints collected between 0 and 24 hours of incubation by liquid-chromatography-coupled mass spectrometry (LC–MS); conditions: 2 µM
[15] = The drug is tested on Z-028 corresponding to mouse gut metagenome with ENA study accession number: PRJEB37062 and ENA sample accession number: ERS12561827 for biotransformation under anaerobic condition. The drug concentrations were measured over 9 timepoints collected between 0 and 24 hours of incubation by liquid-chromatography-coupled mass spectrometry (LC–MS); conditions: 2 µM
[16] = The drug is tested on Z-006 corresponding to mouse gut metagenome with ENA study accession number: PRJEB37062 and ENA sample accession number: ERS12561806 for biotransformation under anaerobic condition. The drug concentrations were measured over 9 timepoints collected between 0 and 24 hours of incubation by liquid-chromatography-coupled mass spectrometry (LC–MS); conditions: 2 µM
[17] = human gut metagenome, 24 h, 2 µM; remark: listed apart in the source
[18] = human gut metagenome, 24 h, 2 µM; remark: listed apart in the source
[19] = human gut metagenome, 24 h, 2 µM; remark: listed apart in the source
[20] = The drug is tested on Z-026 corresponding to metagenome with ENA study accession number: PRJEB37062 and ENA sample accession number: ERS12561825 for biotransformation under anaerobic condition. The drug concentrations were measured over 9 timepoints collected between 0 and 24 hours of incubation by liquid-chromatography-coupled mass spectrometry (LC–MS); conditions: 2 µM
Further: call rule not given here.

| SMILES | Bacterial Biotransformation [1] | Bacterial Biotransformation [2] | Bacterial Biotransformation [3] | Bacterial Biotransformation [4] | Bacterial Biotransformation [5] | Bacterial Biotransformation [6] | Bacterial Biotransformation [7] | Bacterial Biotransformation [8] | Bacterial Biotransformation [9] | Bacterial Biotransformation [10] | Bacterial Biotransformation [11] | Bacterial Biotransformation [12] | Bacterial Biotransformation [13] | Bacterial Biotransformation [14] | Bacterial Biotransformation [15] | Bacterial Biotransformation [16] | Bacterial Biotransformation [17] | Bacterial Biotransformation [18] | Bacterial Biotransformation [19] | Bacterial Biotransformation [20] |
| --- | --- | --- | --- | --- | --- | --- | --- | --- | --- | --- | --- | --- | --- | --- | --- | --- | --- | --- | --- | --- |
| CCCC1O[C@@H]2C[C@H]3[C@@H]4CCC5=CC(=O)C=C[C@]5(C)[C@H]4[C@@H](O)C[C@]3(C)[C@]2(C(=O)CO)O1 (stereo not given in full) [BUDESONIDE] | Compound metabolized | Compound metabolized | Compound metabolized | Compound metabolized | Compound metabolized | Compound metabolized | Compound metabolized | Compound metabolized | Compound metabolized | Compound metabolized | Compound metabolized | Compound metabolized | Compound metabolized | Compound metabolized | Compound metabolized | Compound NOT metabolized | Compound metabolized | Compound metabolized | Compound metabolized | Compound NOT metabolized |
| CCN(CC)CCOCCOC(=O)C1(c2ccccc2)CCCC1.O=C(O)CC(O)(CC(=O)O)C(=O)O [CARBETAPENTANE CITRATE] | Compound metabolized | Compound NOT metabolized | Compound metabolized | Compound metabolized | Compound metabolized | Compound metabolized | Compound metabolized | Compound metabolized | Compound NOT metabolized | Compound metabolized | Compound NOT metabolized | Compound NOT metabolized | Compound metabolized | Compound NOT metabolized | Compound NOT metabolized | Compound NOT metabolized | Compound metabolized | Compound metabolized | Compound metabolized | Compound NOT metabolized |
| O=C(O)COCCN1CCN(C(c2ccccc2)c2ccc(Cl)cc2)CC1 (stereo not given) [CETIRIZINE] | Compound metabolized | Compound metabolized | Compound metabolized | Compound metabolized | Compound metabolized | Compound metabolized | Compound metabolized | Compound metabolized | Compound metabolized | Compound metabolized | Compound metabolized | Compound metabolized | Compound metabolized | Compound NOT metabolized | Compound NOT metabolized | Compound NOT metabolized | Compound metabolized | Compound metabolized | Compound metabolized | Compound NOT metabolized |
| CN/C(=N/CCSCc1nc[nH]c1C)NC#N [CIMETIDINE] | Compound NOT metabolized | Compound metabolized | Compound metabolized | Compound NOT metabolized | Compound metabolized | Compound metabolized | Compound metabolized | Compound NOT metabolized | Compound metabolized | Compound NOT metabolized | Compound metabolized | Compound NOT metabolized | Compound metabolized | Compound NOT metabolized | Compound NOT metabolized | Compound NOT metabolized | Compound NOT metabolized | Compound metabolized | Compound metabolized | Compound NOT metabolized |
| Br.CN(C)CCCC1(c2ccc(F)cc2)OCc2cc(C#N)ccc21 (stereo not given) [CITALOPRAM HYDROBROMIDE] | Compound metabolized | Compound metabolized | Compound metabolized | Compound NOT metabolized | Compound NOT metabolized | Compound metabolized | Compound metabolized | Compound NOT metabolized | Compound NOT metabolized | Compound metabolized | Compound NOT metabolized | Compound NOT metabolized | Compound metabolized | Compound NOT metabolized | Compound NOT metabolized | Compound NOT metabolized | Compound metabolized | Compound metabolized | Compound metabolized | Compound NOT metabolized |
| CN(C)CCC=C1c2ccccc2C=Cc2ccccc21 [CYCLOBENZAPRINE] | Compound NOT metabolized | Compound metabolized | Compound metabolized | Compound NOT metabolized | Compound metabolized | Compound metabolized | Compound NOT metabolized | Compound metabolized | Compound metabolized | Compound metabolized | Compound NOT metabolized | Compound NOT metabolized | Compound metabolized | Compound NOT metabolized | Compound NOT metabolized | Compound NOT metabolized | Compound metabolized | Compound metabolized | Compound NOT metabolized | Compound NOT metabolized |
